# Experimental data published in patent publication US20250064907A1, “THERAPEUTIC VACCINES FOR TREATMENT OF CHRONIC INFLAMMATORY DISEASES” (ATHEROVAX, LLC, priority 2023, published 2025).
# Entries after “also recorded” stand apart in the source; their conditions may differ. Where no end group is shown, it is not given here.
# Legend:
# [1] = test system: thrombus; assay: Inferior vena cava ligation thrombus, wet weight; type: in vivo, Lewis rats; conditions: for Thrombus (wet weight): 4 hours after ligation, saline 0.015 ± 0.001
# Description: (§1) Adult Lewis rats weighing 200-250 g were randomly distributed into three treatment groups with 4 male and 4 female rats in each group. Group 1 received 1.0 mL saline subcutaneously on days 0 and 14. Group 2 received 1.0 mL saline with 0.025 mg AtheroVax peptide (SEQ ID NO: 18) and 0.025 mg aluminum hydroxide adjuvant on days 0 and 14. Group 3 received 1.0 mL saline with 0.075 mg AtheroVax peptide (SEQ ID NO: 18) and 0.075 mg aluminum hydroxide adjuvant on days 0 and 14. […] The abdominal cavity was sutured immediately after the ligation. The rats were euthanized 4 hours after dressing.
# (§2) The thrombus was removed from the rats and wet weight determined. In addition, blood was recovered from the rats and coagulation parameters prothrombin time (PT), thrombin time (TT), and fibrinogen were measured.
# (§3) Statistical analysis of mean and standard deviation for male, female, and combined values were calculated for each of the coagulation parameters. Pairwise comparisons using the students T-test were performed using Excel. Significance was determined if the p-value is less than 0.05.
# [2] = test system: TNFα; assay: TNFα ELISA in rat colitis model; type: in vivo; conditions: for tissue resident TNFα: colon tissue; for reduction in TNFα: vaccinated animals
# Description: (§4) Rats were vaccinated with a human sTNFR2 peptide, DFALPVEKPLCLOR (SEQ ID NO: 18), targeting the human sTNFR2 peptide. The rats were injected with 25 μg of the peptide subcutaneously with 25 μg Alum as adjuvant in PBS 10 days before initiating colitis. The studies were performed in accordance with the recommendations of the Animal Care and Use Committee of Tbilisi State Medical University. Briefly, the colitis was induced by introduction of 4% acetic acid at 24-hour intervals for three days into the colon under light anesthesia (50 mg/kg ketamine HCl and 5 mg/kg xylaxine). Injections were intrarectal through 2 mm diameter, 6-8 cm long polyethylene catheter to deliver 1 mL solution. See Cagin et al., Exp. Ther. Med. 12 (5): 2958-2964 (2016).
# (§5) TNFα and IL-6 cytokines were measured with ELISA kits according to the manufacturer's instructions (Invitrogen). The ELISA plates were developed with tetramethylbenzidine (TMB) substrate and absorbance was read at 450 nm using an ELx808 Ultra Microplate Reader (BioTek Instruments GmbH, Lucerne, Switzerland). […] Reduction in TNFα is consistent with loss of sTNFR2 binding.
# (§6) All values reported are mean and standard error of the mean. Group comparisons are either two-tailed t-test or ANOVA calculated using Excel.
# [3] = test system: Rat Colitis Model of Ulcerative Colitis; assay: Rat colitis model of ulcerative colitis: visual and gross observations; type: in vivo
# Description: as §4
# The study design included 4 treatment groups:
# Group B: alum only 10 day prior, followed by colitis
# Group C: sTNFR2 peptide (SEQ ID NO: 18)+alum 10 day prior, followed by colitis
# Group D: no vaccine and no colitis
# [4] = test system: regulatory T cells (Tregs); assay: FoxP3 immunohistochemistry of colon, rat ulcerative colitis model; type: in vivo; conditions: 75 μg peptide and alum adjuvant one week prior to colitis; colon collected 8 days after initiation; vs unvaccinated
# Description: These studies were performed in accordance with the recommendations of the Animal Care and Use Committee of Tbilisi State Medical University. Colitis was initiated following introduction of 4% acetic acid at 24-hour intervals for three days into colon under light anesthesia (50 mg/kg ketamine HCl and 5 mg/kg xylaxine). Injections were intrarectal through 2 mm diameter, 6-8 cm long polyethylene catheter to deliver 1 mL solution.
# Colon samples were fixed in 10% neutral buffered formalin for 24 hours at room temperature and embedded in paraffin. Tissue sections 5 μm thick were stained with hematoxylin and eosin (H&E), Masson's trichrome, and Periodic Acid-Schiff stain (PAS) according to the manufacturer's protocols. The immunohistochemistry utilized a FoxP3 rabbit monoclonal antibody, ab215206, obtained from Abcam (Boston, MA) followed by a goat anti-rabbit secondary antibody conjugated with peroxidase.
# [5] = Blood coagulation parameters after inferior vena cava ligation; type: in vivo, Lewis rats; conditions: across doses, result in words
# Description: as §1, §2, §3
# [6] = test system: IL-6; assay: IL-6 ELISA in rat colitis model; type: in vivo; conditions: for tissue resident IL-6: colon tissue
# Description: as §4, §5, §6
# [7] = test system: rat colon tissue; assay: Colon histology, rat colitis model; type: in vivo; conditions: for colon micrographs (H&E, Masson's trichrome): tissue loss and inflammation: administered 10 days prior to initiating colitis, result in words, listed as sTNR2 peptide
# Description: as §4
# Colon samples were fixed in 10% neutral buffered formalin for 24 hours at room temperature and embedded in paraffin. Tissue sections, 5 μm thick, were stained with hematoxylin and eosin (H&E), Masson's trichrome, and Periodic Acid-Schiff (PAS) according to the manufacturer's protocols. Histological evaluation of colons were assigned scores, (a score of 1 is normal and a score of 4 is severe pathology) for the number of animals with pathology >2, average pathology score, pathology distribution, and average inflammatory score (Table 7).
# [8] = circulating blood, vaccinated vs control animals, result in words
# [9] = result in words, listed as AtheroVax
# [10] = score of 1 is normal, 4 is severe pathology, colitis only group 4
substance,measurement,setting,value
DFALPVE/KPLCLQR (DFALPVEKPLCLQR; not fully specified; listed as Homo sapiens) [AtheroVax peptide (SEQ ID NO: 18)],Thrombus (wet weight),"[1]; Grp. 2, 25 μg peptide + adjuvant days 0 and 14",0.011±0.001 grams
same,Thrombus (wet weight),"[1]; Grp. 3, 75 μg peptide + adjuvant days 0 and 14",0.007±0.001 grams
same,thrombus weight,"[1]; across doses, treatment prior to initiation of thrombosis, result in words",dose dependent smaller
same,TNFα (mean ± SEM),"[2]; ELISA, rat colitis model, injection 10 days before colitis, colitis only group 29.20 ± 0.65",1.12 ± 0.13
same,circulating levels of TNFα,[2]; [8],significantly lower
same,tissue resident TNFα,[2]; result in words,significantly lower
same,tissue resident TNFα,[2]; [9],significant reductions
same,reduction in TNFα,[2]; result in words,significant reductions
same,reduction in TNFα,"[2]; result in words, listed as sTNFR2 peptide (SEQ ID NO: 18)+alum",significant reduction
same,elevations in body temperature,"[3]; rats, 25 μg peptide with 25 μg Alum 10 days before colitis",significantly prevented
same,loss of body weight,"[3]; rats, 25 μg peptide with 25 μg Alum 10 days before colitis, visual observations",significantly prevented
same,"gross colon observations (hyperemic, edematous, thickened, sharply increased volume)","[3]; rats, peptide + alum 10 days before colitis, compared with Group A (unvaccinated)",not associated
same,Bleeding,"[3]; rats, subcutaneous injection 10 days before 4% acetic acid colitis, peptide 25 μg with 25 μg Alum",Hemoccult Negative
same,Stool,"[3]; rats, subcutaneous injection 10 days before 4% acetic acid colitis, peptide 25 μg with 25 μg Alum, listed as sTNFR2 peptide (SEQ ID NO: 18)+alum",Normal
same,Stool,"[3]; rats, subcutaneous injection 10 days before 4% acetic acid colitis, peptide 25 μg with 25 μg Alum, listed as sTNR2 peptide (SEQ ID NO: 18)+alum adjuvant",normal stools
same,integrity of the colon and outcomes in the rat colitis model,"[3]; vaccinated vs control animals, result in words",preserved integrity oof the colon and improved outcomes
same,intensity of FoxP3 (Treg) staining in colon,[4],less intense; also recorded: do not stain as intensely
same,number of FoxP3 positive cells in colon,[4],fewer cells; also recorded: reduced; also recorded: lower frequencies
same,fibrinogen,[5],elevation
same,prothrombin times,[5],increased
same,thrombin time,[5],decreased
same,IL-6 (mean ± SEM),"[6]; ELISA, rat colitis model, injection 10 days before colitis, colitis only group 6.46 ± 0.22",1.76 ± 0.13
same,circulating levels of IL-6,[6]; [8],significantly lower
same,tissue resident IL-6,[6]; result in words,significantly lower
same,tissue resident IL-6,[6]; [9],significant reductions
same,reduction in IL-6,"[6]; vaccinated animals, result in words",significant reductions
same,"colon micrographs (H&E, Masson's trichrome): tissue loss and inflammation",[7],significant protection against inflammation
same,"colon micrographs (H&E, Masson's trichrome): tissue loss and inflammation",[7]; (SEQ ID NO: 18) and alum adjuvant,significant protective effect
same,Number animals with pathology >2 (1-5),"[7]; rat colitis model, colon histology",5
same,Average Inflammatory Score (1-4),[7]; [10],2
same,Average Pathology Score (1-4),[7]; [10],1
same,Pathology Distribution (1-4),[7]; [10],2
